The values that follow come from PMC11783601, “Analogue-Sensitive Inhibition of Histone Demethylases Uncovers Member-Specific Function in Ribosomal Protein Synthesis” (Journal of the American Chemical Society, 2025).

“Also recorded” adds a separate entry of the source. Like-named read-outs stand apart in the source and are kept apart here.

Data set [1] concerns 47S rRNA precursor in HEK293T cells. The data set can be described thus: Fluorescence in situ hybridization (FISH) of 47S precursor rRNA. The class given is cell-based, human. To be noted: HEK293T cells expressing F185A. How it is done:
We next examined the mechanistic link between KDM4A-mediated promoter demethylation and rRNA upregulation (Figure 7A). To confirm that KDM4A specifically stimulates rRNA synthesis, we performed fluorescence in situ hybridization (FISH) using a fluoresceine-attached short DNA complementary to the 47S rRNA precursor. Overexpression of wild type KDM4A and its as variant indeed led to increased expression of the precursor rRNA compared to that of the control vector (Figure 7B,C).
(Sigma B2883-25MG) for 30 seconds, washed with PBS and finally adhered to a slide with gelvatol. The cells were imaged at University of Pittsburgh Center for Biological Imaging on an Olympus Fluoview 1000 II, grant number 1S10OD019973-01 using excitation and emission wavelengths corresponding to that of Rhodamine. Images were analyzed on ImageJ open-source software and NIS elements software.
17. Analysis of rRNA expression in HEK293T cells using fluorescence in-situ hybridization HEK293-T cells (ATCC CRL-1573) were grown in a 24 well plate (Corning) on poly-D-lysine (Gibco A3890401) treated glass coverslips (ThermoScientific 12-545-81P) overnight and transfected the next day with 500 ng KDM4A WT/F185A or Empty Vector (EV) equivalent using 1:2 ug of Thermo Turbofect (FERR0531). […] Images were analyzed on ImageJ open-source software and NIS elements software. […]

The nature of data set [2]: HPLC stability of compound in assay buffer. The format is physicochemical. To be noted: HPLC traces at t=0 hr. and t=5 hr. incubation; integrity confirmed by LC-MS. How it is done:
Supplementary Figure S13. HPLC traces of NOL 6 at t=0 hr. (red) and t=5 hr. (blue) incubation
The compound integrity was further
Supplementary Figure S14. MALDI-TOF spectra for demethylase activity of wild type KDM4C
(A) and KDM4C-F187A mutant (B). In each case, topmost panel is assay without the cofactor
2OG (negative control), middle panel is assay with the cofactor (positive control) and the bottom
mutant completely at 50 µM concentration (B). The demethylase activity of F187A mutant is
(1 picture or pasted object on this page, not shown here)

Data set [3] addresses T1, KDM4E-F186A (Homo sapiens, UniProt B2RXH2, F186A).
T1 construct: we recombinantly expressed the catalytic domains of 12 wild type dioxygenases, in addition to KDM4A-E; 6xHis (N); host or cells: E. coli BL21 (DE3)
The data set can be described thus: MALDI-MS demethylase assay on H3K9me3 peptide. The class given is biochemical. How it is done:
(§1) We next tested the inhibitory potential of 6 against these proteins using H3K9me3 peptide substrate and analyzed it by MALDI-MS. […] We subsequently examined the ability of asKDM4 variants to demethylate full-length histones extracted from mammalian cells. HEK293T cells were cultured in the presence of 10 μM n-octyl IOX1, a broad-spectrum inhibitor of demethylases,[41],[42] to generate a hypermethylated proteome (Figure S19). The extracted histone was incubated with the as variants individually, each with or without 6, and the extent of demethylation was analyzed by Western blot using the H3K9me3-specific antibody. […]
(§2) assay (Biorad) kit with BSA concentrations as a standard. […]
(§3) 8. Demethylase activity of the wild type and mutant KDM4 proteins on peptide substrate To monitor enzymatic activity, a demethylase activity assay was optimized and then observed through MALDI-TOF.7 Each histone demethylase assay sample included either wild type or mutant enzyme (10µM KDM4A, 7.5µM KDM4C, 10µM KDM4D, or 1µM KDM4E), 10 µM peptide, 200 µM 2OG, 50 mM Tris pH 8, […], 0-200µM NOG analogue, and 2 mM L-ascorbic acid with a total assay volume of 10 µL. Fe(II) supplement and L-ascorbic acid […]
(§4) Lastly, the 2OG and peptide were […]
(§5) positive mode and analyzed on Bruker FlexAnalysis software. The percent demethylated peptide […]
(§6) the multiple demethylation events on the peptide. […]

Data set [4] deals with T2, wild type KDM4C (Homo sapiens, UniProt Q9H3R0).
T2 construct: 6xHis-tagged human KDM4C catalytic domain construct; 6xHis (N); made in house; host or cells: E. coli BL21 [DE3] star
Description: MALDI-MS demethylase assay on H3K9me3 peptide. The format is biochemical. The procedure: as §1, §2, §3, §4, §5, §6

T2 sequence (Q9H3R0 144-310 limits assumed): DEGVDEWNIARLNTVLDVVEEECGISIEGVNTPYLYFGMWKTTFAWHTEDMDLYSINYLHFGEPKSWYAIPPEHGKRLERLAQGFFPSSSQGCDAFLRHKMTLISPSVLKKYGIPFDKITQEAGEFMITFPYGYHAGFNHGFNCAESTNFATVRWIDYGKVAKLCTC
T1 sequence (B2RXH2 143-309 F186A limits assumed): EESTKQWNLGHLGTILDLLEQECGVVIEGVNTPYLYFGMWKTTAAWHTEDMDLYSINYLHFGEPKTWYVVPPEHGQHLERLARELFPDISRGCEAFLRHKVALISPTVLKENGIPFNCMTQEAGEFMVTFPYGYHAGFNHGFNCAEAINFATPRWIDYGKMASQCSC

With `CC(C)CC(NC(=O)C(=O)OCc1cccc(C(F)(F)F)c1)C(=O)O` [6B, L-Leu TFMB-ester NOG], the “transcription of the 47S precursor rRNA” value in data set [1] is “significantly reduced; also recorded: decreased expression of pre-rRNA”.
`CC(C)CC(NC(=O)C(=O)O)C(=O)O` (centres unmarked) [compound 6, N-oxalyl leucine]: the “stability of the compound in assay buffer” value in data set [2] is recorded as “confirm the stability”. Further, the “inhibition of KDM4E-F186A” value in data set [3] is “significantly inhibited”. The “inhibition of wild type KDM4C” value was “fully refractory” in data set [4] and “does not inhibit” in data set [4] (listed as NOG 6).
